Reference: PubChem BioAssay AID330 (DTP/NCI, 2004)
Values joined by “and” are separate entries in the source; they are usually repeats but may differ in a detail not shown here. Equal values may be shown once. Inconclusive results and toxic doses are left out. How the source made its calls: active means survival T/C of 150% or more; inactive means T/C below 125% in these data.

Test system: P388 leukemia ip, CD2F1 mice, survival T/C
Experiment: NCI In Vivo Anticancer Drug Screen. Data for tumor model P388 Leukemia (intraperitoneal) in CD2F1 (CDF1) mice
Settings: endpoint: median survival time, higher = longer survival
Summary of the method: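 Mice carrying the transplanted tumor received test compound or vehicle. Survival was recorded in each group, and the value is the treated-group measurement divided by that of the vehicle-treated control group.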

[1] = dose: 50.0 mg/kg/injection, schedule: Q01DX005 (ip), vehicle: saline with Tween-80
[2] = dose: 100.0 mg/kg/injection, schedule: Q01DX005 (ip), vehicle: saline with Tween-80
[3] = dose: 200.0 mg/kg/injection, schedule: Q01DX005 (ip), vehicle: saline with Tween-80
[4] = dose: 50.0 mg/kg/injection, schedule: Q01DX005 (ip), vehicle: Klucel (hydroxypropylcellulose) (HPC)
[5] = dose: 100.0 mg/kg/injection, schedule: Q01DX005 (ip), vehicle: Klucel (hydroxypropylcellulose) (HPC)
[6] = dose: 200.0 mg/kg/injection, schedule: Q01DX005 (ip), vehicle: Klucel (hydroxypropylcellulose) (HPC)
[7] = dose: 12.5 mg/kg/injection, schedule: Q01DX009 (ip), vehicle: other
[8] = dose: 25.0 mg/kg/injection, schedule: Q01DX009 (ip), vehicle: other
[9] = dose: 50.0 mg/kg/injection, schedule: Q01DX009 (ip), vehicle: other
[10] = dose: 100.0 mg/kg/injection, schedule: Q01DX009 (ip), vehicle: other
[11] = dose: 200.0 mg/kg/injection, schedule: Q01DX009 (ip), vehicle: other
[12] = dose: 60.0 mg/kg/injection, schedule: Q01DX005 (ip), vehicle: saline with Tween-80
[13] = dose: 120.0 mg/kg/injection, schedule: Q01DX005 (ip), vehicle: saline with Tween-80
[14] = dose: 400.0 mg/kg/injection, schedule: Q01DX009 (ip), vehicle: other
[15] = dose: 12.5 mg/kg/injection, schedule: Q01DX009 (ip), vehicle: saline with Tween-80
[16] = dose: 25.0 mg/kg/injection, schedule: Q01DX009 (ip), vehicle: saline with Tween-80
[17] = dose: 50.0 mg/kg/injection, schedule: Q01DX009 (ip), vehicle: saline with Tween-80
[18] = dose: 100.0 mg/kg/injection, schedule: Q01DX009 (ip), vehicle: saline with Tween-80
[19] = dose: 200.0 mg/kg/injection, schedule: Q01DX009 (ip), vehicle: saline with Tween-80

Measured: T/C

c1cnc2c(c1)Oc1nc3ccccc3nc1S2
inactive: [1] 99 % of control | [2] 98 % of control | [3] 96 % of control

COc1ccc(COc2ccc(C(=O)CCN3CCOCC3)cc2)cc1
inactive: [4] 99 % of control | [5] 99 % of control | [6] 99 % of control

CCOC(=O)/C=C/c1nc(OCC)c(C)c(C(=O)OCC)n1
inactive: [7] 95 % of control | [8] 102 % of control | [9] 98 % of control | [10] 103 % of control | [11] 90 % of control

[Cu+2].[Cu+2].c1ccc2c(c1)-c1nc-2nc2[n-]c(nc3nc(nc4[n-]c(n1)c1ccccc41)-c1ccccc1-3)c1cc3c4nc5nc(nc6[n-]c(nc7nc(nc([n-]4)c3cc21)-c1ccccc1-7)c1ccccc61)-c1ccccc1-5
inactive: [12] 100 % of control | [13] 89 % of control | dose: 240.0 mg/kg/injection, schedule: Q01DX005 (ip), vehicle: saline with Tween-80 95 % of control

COc1ccc(/C(=C/c2ccc([N+](=O)[O-])cc2)C(=O)O)cc1
inactive: [4] 105 % of control | [5] 105 % of control | [6] 105 % of control

CCN(CC)C/C=C(/C)CCC=C(C)C
inactive: dose: 5.0 mg/kg/injection, schedule: Q04DX002 (ip), vehicle: saline with Tween-80 103 % of control | dose: 10.0 mg/kg/injection, schedule: Q04DX002 (ip), vehicle: saline with Tween-80 99 % of control | dose: 20.0 mg/kg/injection, schedule: Q04DX002 (ip), vehicle: saline with Tween-80 95 % of control

CCN1C(=O)NC(=O)C(C)(N2CCCCC2)C1=O (configuration not stated)
inactive: [4] 108 % of control | [5] 103 % of control | [6] 100 % of control

C=C1CCN(c2ccccc2Cl)C1=O
inactive: dose: 4.0 mg/kg/injection, schedule: Q01DX009 (ip), vehicle: saline + alcohol 100 % of control and 103 % of control and 109 % of control | dose: 8.0 mg/kg/injection, schedule: Q01DX009 (ip), vehicle: saline + alcohol 100 % of control and 104 % of control and 106 % of control | dose: 16.0 mg/kg/injection, schedule: Q01DX009 (ip), vehicle: saline + alcohol 100 % of control and 112 % of control | dose: 32.0 mg/kg/injection, schedule: Q01DX009 (ip), vehicle: saline + alcohol 99 % of control and 100 % of control and 107 % of control | dose: 64.0 mg/kg/injection, schedule: Q01DX009 (ip), vehicle: saline + alcohol 104 % of control and 105 % of control

COC1C/C(=N\O)C2OC(c3ccccc3)OCC2O1 (configuration not stated)
inactive: dose: 1.56 mg/kg/injection, schedule: Q01DX009 (ip), vehicle: other 96 % of control | dose: 3.13 mg/kg/injection, schedule: Q01DX009 (ip), vehicle: other 104 % of control | dose: 6.25 mg/kg/injection, schedule: Q01DX009 (ip), vehicle: other 106 % of control | [7] 92 % of control | [8] 101 % of control and 94 % of control | [9] 99 % of control | [10] 100 % of control | [11] 98 % of control | [14] 100 % of control

CCOC(=O)/C(C#N)=C/C=C1\C=CC=CN1C
inactive: [15] 95 % of control | [16] 86 % of control | [17] 90 % of control

CC(C)=CC1OC2CC3(C)C4=C(CCC3(C)C2C(C)C1O)C1(C)CCC(O)C(C)(C)C1CC4 (configuration not stated)
inactive: dose: 15.0 mg/kg/injection, schedule: Q01DX009 (ip), vehicle: saline 98 % of control | dose: 30.0 mg/kg/injection, schedule: Q01DX009 (ip), vehicle: saline 102 % of control | dose: 60.0 mg/kg/injection, schedule: Q01DX009 (ip), vehicle: saline 100 % of control

O=C(O)c1cc(C(=O)CCCC(=O)c2cc(C(=O)O)c(O)c3ccccc23)c2ccccc2c1O
inactive: [15] 100 % of control | [16] 100 % of control | [17] 87 % of control | [18] 93 % of control

NC(=O)C(CCCN=C(N)N)NC(=O)c1ccccc1 (configuration not stated)
inactive: dose: 50.0 mg/kg/injection, schedule: Q01DX005 (ip), vehicle: saline 105 % of control | dose: 100.0 mg/kg/injection, schedule: Q01DX005 (ip), vehicle: saline 99 % of control | dose: 200.0 mg/kg/injection, schedule: Q01DX005 (ip), vehicle: saline 105 % of control

O=S(=O)(Nc1ccc(O)c(Cl)c1)c1ccccc1
inactive: dose: 100.0 mg/kg/injection, schedule: Q04DX003 (ip), vehicle: saline with Tween-80 100 % of control | dose: 200.0 mg/kg/injection, schedule: Q04DX003 (ip), vehicle: saline with Tween-80 100 % of control | dose: 400.0 mg/kg/injection, schedule: Q04DX003 (ip), vehicle: saline with Tween-80 100 % of control

CCOC(=O)c1ccc(NC(=O)Nc2cnccn2)cc1
inactive: [15] 92 % of control | [16] 93 % of control | [17] 86 % of control and 91 % of control | [18] 95 % of control | [19] 90 % of control

COc1ccc(S(=O)(=O)N/N=C/c2cc([N+](=O)[O-])ccc2O)cc1
inactive: [1] 101 % of control | [2] 107 % of control | [3] 119 % of control

COc1ccc(NC(=O)c2cc3c(cc2Br)OCO3)cc1
inactive: [7] 102 % of control | [8] 96 % of control | [9] 100 % of control | [10] 93 % of control | [11] 99 % of control | [14] 89 % of control

CC(=O)Oc1c(C)c(C)c(OC(C)=O)c(OC(C)=O)c1C
inactive: dose: 100.0 mg/kg/injection, schedule: Q04DX002 (ip), vehicle: Klucel (hydroxypropylcellulose) (HPC) 93 % of control | dose: 200.0 mg/kg/injection, schedule: Q04DX002 (ip), vehicle: Klucel (hydroxypropylcellulose) (HPC) 96 % of control | dose: 400.0 mg/kg/injection, schedule: Q04DX002 (ip), vehicle: Klucel (hydroxypropylcellulose) (HPC) 90 % of control

CCOc1c(N=Nc2ccc(C)cc2)c(C)nn1C(=S)S
inactive: dose: 60.0 mg/kg/injection, schedule: Q01DX005 (ip), vehicle: Klucel (hydroxypropylcellulose) (HPC) 96 % of control | dose: 120.0 mg/kg/injection, schedule: Q01DX005 (ip), vehicle: Klucel (hydroxypropylcellulose) (HPC) 105 % of control | dose: 240.0 mg/kg/injection, schedule: Q01DX005 (ip), vehicle: Klucel (hydroxypropylcellulose) (HPC) 97 % of control

c1ccc2c3c([nH]c2c1)CCCCC3
inactive: [16] 96 % of control | [17] 109 % of control | [18] 106 % of control | [19] 118 % of control

C[CH2][Sn]1([CH2]C)[O]C2C(OC)OC3COC(c4ccccc4)OC3C2[O]1 (configuration not stated)
inactive: dose: 1.56 mg/kg/injection, schedule: Q04DX003 (ip), vehicle: saline 101 % of control and 107 % of control | dose: 3.12 mg/kg/injection, schedule: Q04DX003 (ip), vehicle: saline 104 % of control and 116 % of control | dose: 6.25 mg/kg/injection, schedule: Q04DX003 (ip), vehicle: saline 101 % of control and 116 % of control and 117 % of control | dose: 12.5 mg/kg/injection, schedule: Q04DX003 (ip), vehicle: saline 104 % of control and 116 % of control

C=C1CC2(CC3CCC2(C)C3(C)C)OC1=O (configuration not stated)
inactive: dose: 100.0 mg/kg/injection, schedule: Q01DX001 (ip), vehicle: saline 98 % of control | dose: 200.0 mg/kg/injection, schedule: Q01DX001 (ip), vehicle: saline 99 % of control | dose: 400.0 mg/kg/injection, schedule: Q01DX001 (ip), vehicle: saline 99 % of control

CC1=NN(C(=O)c2ccccc2)C(=O)C1N=Nc1ccc([N+](=O)[O-])cc1 (configuration not stated)
inactive: dose: 25.0 mg/kg/injection, schedule: Q04DX002 (ip), vehicle: saline with Tween-80 101 % of control | dose: 50.0 mg/kg/injection, schedule: Q04DX002 (ip), vehicle: saline with Tween-80 100 % of control | dose: 100.0 mg/kg/injection, schedule: Q04DX002 (ip), vehicle: saline with Tween-80 88 % of control and 92 % of control

Cc1nc2ccccc2c2nnc(SCC(=O)N(Cc3ccccc3)c3ccccc3)n12
inactive: [4] 99 % of control | [5] 100 % of control | [6] 102 % of control

CCOC(=O)Nc1ccc(Cl)cc1C(=O)c1ccccc1
inactive: dose: 45.0 mg/kg/injection, schedule: Q01DX009 (ip), vehicle: saline with Tween-80 102 % of control | dose: 90.0 mg/kg/injection, schedule: Q01DX009 (ip), vehicle: saline with Tween-80 100 % of control | dose: 180.0 mg/kg/injection, schedule: Q01DX009 (ip), vehicle: saline with Tween-80 96 % of control

CCN1CC(O)Cc2ccccc21 (configuration not stated)
inactive: [12] 100 % of control | [13] 94 % of control

COc1ccc2c(Cl)ccnc2c1OC
inactive: [1] 99 % of control | [2] 107 % of control
